Assay: Inhibition of perforin (unknown origin)-mediated 51Cr-labelled human Jurkat cell lysis preincubated with protein for 30 mins followed by cell addition measured after 4 hrs by gamma counting method

SMILES | IC50 [µM]
CN1Cc2cc(-c3ccc(-c4cncc(NS(=O)(=O)c5ccc6c(c5)OCCO6)c4)s3)ccc2C1=O | > 20
CN1Cc2cc(-c3ccc(-c4cncc(NS(=O)(=O)c5ccccc5Cl)c4)s3)ccc2C1=O | 4.01
COC(=O)c1ccc(S(=O)(=O)Nc2cncc(-c3ccc(-c4ccc5c(c4)CN(C)C5=O)s3)c2)cc1 | 8.16
CN1Cc2cc(-c3ccc(-c4cncc(NS(=O)(=O)c5ccc(Cl)c(Cl)c5)c4)s3)ccc2C1=O | 1.32
Cc1ccc(S(=O)(=O)Nc2ccccn2)cc1-c1ccc(-c2ccc3c(c2)CN(C)C3=O)s1 | > 20
CN1Cc2cc(-c3ccc(-c4cncc(NS(=O)(=O)c5ccccc5Br)c4)s3)ccc2C1=O | 2.66
CN1Cc2cc(-c3ccc(-c4cncc(NS(=O)(=O)c5cccc(C#N)c5)c4)s3)ccc2C1=O | > 20
CN1Cc2cc(-c3ccc(-c4cncc(NS(=O)(=O)c5ccc(C#N)cc5)c4)s3)ccc2C1=O | 5.17
CN1Cc2cc(-c3ccc(-c4cncc(NC(=O)c5ccc(F)cc5F)c4)s3)ccc2C1=O | > 20
CN1Cc2cc(-c3ccc(-c4cncc(NS(=O)(=O)c5ccc(-c6cnco6)cc5)c4)s3)ccc2C1=O | 3.05
COC(=O)c1cccc(S(=O)(=O)Nc2cncc(-c3ccc(-c4ccc5c(c4)CN(C)C5=O)s3)c2)c1 | 7.77
CN1Cc2cc(-c3ccc(-c4cc(NS(=O)(=O)c5ccccn5)ccc4F)s3)ccc2C1=O | > 20
CN1Cc2cc(-c3ccc(-c4ccc(NS(=O)(=O)c5ccc(F)cc5F)nc4)s3)ccc2C1=O | > 20
CN1Cc2cc(-c3ccc(-c4cncc(NS(=O)(=O)c5ccccc5C(F)(F)F)c4)s3)ccc2C1=O | 1.45
CN1Cc2cc(-c3ccc(-c4cncc(NS(=O)(=O)c5ccccc5S(C)(=O)=O)c4)s3)ccc2C1=O | 6.8
CN1Cc2cc(-c3ccc(-c4cncc(NS(=O)(=O)c5ccc(F)cc5)c4)s3)ccc2C1=O | 9.65
CN1Cc2cc(-c3ccc(-c4cncc(NS(=O)(=O)c5ccc(-c6ccno6)s5)c4)s3)ccc2C1=O | 7.1
CN1Cc2cc(-c3ccc(-c4cnc(F)c(NS(=O)(=O)c5ccc(F)cc5F)c4)s3)ccc2C1=O | 1.99
CN1Cc2cc(-c3ccc(-c4cncc(NS(=O)(=O)c5ccc(F)c(F)c5)c4)s3)ccc2C1=O | 18.6
Cc1ncsc1S(=O)(=O)Nc1cncc(-c2ccc(-c3ccc4c(c3)CN(C)C4=O)s2)c1 | 11.6
CN1Cc2cc(-c3ccc(-c4cncc(NS(=O)(=O)c5ccc(OC(F)(F)F)cc5)c4)s3)ccc2C1=O | > 20
CN1Cc2cc(-c3ccc(-c4cncc(NS(=O)(=O)c5cccc(Cl)c5F)c4)s3)ccc2C1=O | 13
CN1Cc2cc(-c3ccc(-c4cncc(NS(=O)(=O)c5ccc([N+](=O)[O-])cc5)c4)s3)ccc2C1=O | 2.74
COc1ncc(-c2ccc(-c3ccc4c(c3)CN(C)C4=O)s2)cc1NS(=O)(=O)c1ccc(F)cc1F | 3.56

SMILES | IC50 [µM]
CN1Cc2cc(-c3ccc(-c4cncc(NS(=O)(=O)c5ccccc5OC(F)(F)F)c4)s3)ccc2C1=O | 17.7
CN1Cc2cc(-c3ccc(-c4cncc(NS(=O)(=O)c5ccccc5C#N)c4)s3)ccc2C1=O | 9.17
COc1ccc(S(=O)(=O)Nc2cncc(-c3ccc(-c4ccc5c(c4)CN(C)C5=O)s3)c2)cc1 | 6.27
CN1Cc2cc(-c3ccc(-c4cncc(NS(=O)(=O)c5cc(C(F)(F)F)cc(C(F)(F)F)c5)c4)s3)ccc2C1=O | > 20
CN1Cc2cc(-c3ccc(-c4cncc(NS(=O)(=O)c5ccc(C(=O)O)cc5)c4)s3)ccc2C1=O | 0.75
COc1ccc(-c2ccc(-c3ccc4c(c3)CN(C)C4=O)s2)cc1S(=O)(=O)Nc1ccccn1 | 9.68
CN1Cc2cc(-c3ccc(-c4cnc(Cl)c(NS(=O)(=O)c5ccc(F)cc5F)c4)s3)ccc2C1=O | 1.03
COc1cccc(S(=O)(=O)Nc2cncc(-c3ccc(-c4ccc5c(c4)CN(C)C5=O)s3)c2)c1 | 2.56
CN1Cc2cc(-c3ccc(-c4cncc(NS(=O)(=O)c5cccc(Br)c5)c4)s3)ccc2C1=O | 2.11
CN1Cc2cc(-c3ccc(-c4cncc(NS(=O)(=O)c5cccnc5)c4)s3)ccc2C1=O | 15.1
CN1Cc2cc(-c3ccc(-c4cncc(NS(=O)(=O)c5cc(Br)cc(C(F)(F)F)c5)c4)s3)ccc2C1=O | > 20
CN1Cc2cc(-c3ccc(-c4cncc(NS(=O)(=O)c5ccc(F)c(C(F)(F)F)c5)c4)s3)ccc2C1=O | 3.75
CN1Cc2cc(-c3ccc(-c4cncc(NS(=O)(=O)c5ccc(Br)cc5Br)c4)s3)ccc2C1=O | 2.87
CN1Cc2cc(-c3ccc(-c4cncc(NS(=O)(=O)c5cccc(C(F)(F)F)c5)c4)s3)ccc2C1=O | 1.22
CN1Cc2cc(-c3ccc(-c4ccnc(NS(=O)(=O)c5ccc(F)cc5F)c4)s3)ccc2C1=O | 4.7
CN1Cc2cc(-c3ccc(-c4cncc(N(C)S(=O)(=O)c5ccc(F)cc5F)c4)s3)ccc2C1=O | 16.1
CN1Cc2cc(-c3ccc(-c4cccc(S(=O)(=O)Nc5ccccn5)c4)s3)ccc2C1=O | 8.92
Cc1ccc(S(=O)(=O)Nc2cncc(-c3ccc(-c4ccc5c(c4)CN(C)C5=O)s3)c2)cc1Cl | 8.14
CN1Cc2cc(-c3ccc(-c4cncc(NS(=O)(=O)c5ccsc5)c4)s3)ccc2C1=O | 12.5
CN1Cc2cc(-c3ccc(-c4cncc(NS(=O)(=O)c5ccc(C(F)(F)F)cc5Cl)c4)s3)ccc2C1=O | > 20
CN1Cc2cc(-c3ccc(-c4cncc(NS(=O)(=O)c5cccc(Cl)c5)c4)s3)ccc2C1=O | 2.42
Cc1cc(F)ccc1S(=O)(=O)Nc1cncc(-c2ccc(-c3ccc4c(c3)CN(C)C4=O)s2)c1 | 5.53
Cc1cc(C)n(-c2ccc(S(=O)(=O)Nc3cncc(-c4ccc(-c5ccc6c(c5)CN(C)C6=O)s4)c3)cc2)n1 | 19.1
CN1Cc2cc(-c3ccc(-c4cccc(NS(=O)(=O)c5ccc(F)cc5F)c4)s3)ccc2C1=O | 5.74

SMILES | IC50 [µM]
CN1Cc2cc(-c3ccc(-c4cncc(NS(=O)(=O)c5ccc(Cl)cc5Cl)c4)s3)ccc2C1=O | 15
CN1Cc2cc(-c3ccc(-c4cncc(NS(=O)(=O)c5ccc(I)cc5)c4)s3)ccc2C1=O | 5
CN1Cc2cc(-c3ccc(-c4cncc(NS(=O)(=O)c5ccccc5F)c4)s3)ccc2C1=O | 2.03
COc1ccccc1S(=O)(=O)Nc1cncc(-c2ccc(-c3ccc4c(c3)CN(C)C4=O)s2)c1 | 14.8
CN1Cc2cc(-c3ccc(-c4cncc(NS(=O)(=O)c5ccc(S(C)(=O)=O)cc5)c4)s3)ccc2C1=O | > 20
CN1Cc2cc(-c3ccc(-c4cncc(NS(=O)(=O)c5ccc(Br)cc5)c4)s3)ccc2C1=O | 8.77
CN1Cc2cc(-c3ccc(-c4cncc(NS(=O)(=O)c5cccc(OC(F)(F)F)c5)c4)s3)ccc2C1=O | 1.42
CN1Cc2cc(-c3ccc(-c4cncc(NS(=O)(=O)c5c(F)cc(F)cc5F)c4)s3)ccc2C1=O | 1.76
CN1Cc2cc(-c3ccc(-c4ccc(OC(F)(F)F)c(NS(=O)(=O)c5ccccn5)c4)s3)ccc2C1=O | > 20
CN1Cc2cc(-c3ccc(-c4cncc(NS(=O)(=O)c5ccccn5)c4)s3)ccc2C1=O | 1.07
Cc1ccc(NS(=O)(=O)c2ccc(F)cc2F)cc1-c1ccc(-c2ccc3c(c2)CN(C)C3=O)s1 | > 20
CN1Cc2cc(-c3ccc(-c4cncc(NS(=O)(=O)c5ccccc5)c4)s3)ccc2C1=O | 8.46
CN1Cc2cc(-c3ccc(-c4cncc(S(=O)(=O)Nc5ccc(F)cc5F)c4)s3)ccc2C1=O | 2.24
CN1Cc2cc(-c3ccc(-c4cncc(NS(=O)(=O)c5ccc(C(F)(F)F)cc5)c4)s3)ccc2C1=O | > 20
Cc1ccc(NS(=O)(=O)c2ccccn2)cc1-c1ccc(-c2ccc3c(c2)CN(C)C3=O)s1 | 15.4
CN1Cc2cc(-c3ccc(-c4cncc(NS(=O)(=O)c5cccs5)c4)s3)ccc2C1=O | 1.07
CN1Cc2cc(-c3ccc(-c4cncc(NS(=O)(=O)c5cccc(F)c5)c4)s3)ccc2C1=O | 20
CN1Cc2cc(-c3ccc(-c4cncc(NS(=O)(=O)c5ccccc5[N+](=O)[O-])c4)s3)ccc2C1=O | 6.65
COC(=O)c1ccccc1S(=O)(=O)Nc1cncc(-c2ccc(-c3ccc4c(c3)CN(C)C4=O)s2)c1 | 2.9
CN1Cc2cc(-c3ccc(-c4cnc(F)c(NS(=O)(=O)c5ccccn5)c4)s3)ccc2C1=O | 4.1
CCOC(=O)c1ccc(S(=O)(=O)Nc2cncc(-c3ccc(-c4ccc5c(c4)CN(C)C5=O)s3)c2)cc1 | 19.4
CN1Cc2cc(-c3ccc(-c4cncc(NS(=O)(=O)c5ccc(Cl)cc5)c4)s3)ccc2C1=O | 5.39
